Data published in patent publication US11142526B2, “Spirocycle compounds and methods of making and using same” (H. Lundbeck A/S, priority 2017, dated 2021).
Like-named read-outs stand apart in the source and are kept apart here.

Experiments:
MAGL [1] = target: T1, MAGL (Mus musculus (Mouse), UniProt O35678); assay: In vitro competitive activity-based protein profiling, mouse brain proteome; assay type: biochemical; conditions: for inhibition at 1 µM: mouse; for IC50: mouse brain
MAGL [2] = target: T1, MAGL; assay: Mouse brain proteomes from inhibitor treated mice (oral gavage, brain MAGL activity 4 h after administration); assay type: in vivo; conditions: 5 mg/kg oral gavage
Description: Preparation of Mouse Brain Proteomes from Inhibitor Treated Mice.
Inhibitors were administered to wild-type C57B1/6J by oral gavage in a vehicle of polyethylene glycol.

MAGL [3] = target: MAGL (Homo sapiens (Human), UniProt Q99685); assay: In vitro competitive activity-based protein profiling (gel-based, FP-Rh or HT-01 probe); assay type: biochemical
Sequence of MAGL (Homo sapiens (Human), UniProt Q99685) (Q99685 whole entry): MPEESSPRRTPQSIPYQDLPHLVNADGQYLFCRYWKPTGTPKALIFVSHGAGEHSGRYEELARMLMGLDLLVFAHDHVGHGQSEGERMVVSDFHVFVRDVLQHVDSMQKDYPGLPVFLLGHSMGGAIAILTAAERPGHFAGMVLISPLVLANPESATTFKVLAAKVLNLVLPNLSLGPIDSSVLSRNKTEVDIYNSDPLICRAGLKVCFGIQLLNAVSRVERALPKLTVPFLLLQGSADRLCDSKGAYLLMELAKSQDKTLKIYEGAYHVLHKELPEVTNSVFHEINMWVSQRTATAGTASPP
Description: In Vitro Competitive Activity-Based Protein Profiling.
Proteomes (human prefrontal cortex or cell membrane fractions) (50 μL, 1.0 mg/mL total protein concentration) were preincubated with varying concentrations of inhibitors at 37° C. After 30 min, FP-Rh or HT-01 (1.0 μL, 50 μM in DMSO) was added and the mixture was incubated for another 30 min at room temperature. Reactions were quenched with SDS loading buffer (15 μL—4×) and run on SDS-PAGE.

[4] = human PC3, read-out: MAGL % Inhibition at 1 μM (human PC3)
[5] = human PFC (prefrontal cortex), read-out: MAGL % Inhibition at 1 μM (human PFC)
[6] = human PC3, read-out: MAGL Human PC3 (IC50)

T1 sequence (O35678 whole entry): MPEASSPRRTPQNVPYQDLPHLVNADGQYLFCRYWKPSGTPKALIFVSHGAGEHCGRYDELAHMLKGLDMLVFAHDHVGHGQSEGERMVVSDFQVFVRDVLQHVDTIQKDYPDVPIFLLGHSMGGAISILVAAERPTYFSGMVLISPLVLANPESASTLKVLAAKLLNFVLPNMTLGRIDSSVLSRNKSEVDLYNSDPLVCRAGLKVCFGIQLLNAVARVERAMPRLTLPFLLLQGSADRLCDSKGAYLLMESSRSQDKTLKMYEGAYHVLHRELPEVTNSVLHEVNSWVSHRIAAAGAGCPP

| Structure (SMILES) | inhibition at 1 µM (MAGL [1]) | inhibition at 1 µM (MAGL [3]; [4]) | inhibition at 1 µM (MAGL [3]; [5]) | IC50 (MAGL [3]; [6]) | IC50 (MAGL [3]; human PFC (prefrontal cortex), read-out: MAGL Human PFC (IC50)) | IC50 (MAGL [1]) | MAGL % Inhibition at 5 mg/kg (Mouse) (MAGL [2]) |
| --- | --- | --- | --- | --- | --- | --- | --- |
| Cc1nc2ccc(Cl)nn2c1C(=O)N1CCCC12CCN(C(=O)OC(C(F)(F)F)C(F)(F)F)CC2 [Example 142, 1,1,1,3,3,3-Hexafluoropropan-2-yl 1-(6-chloro-2-methylimidazo[1,2-b]pyridazine-3-carbonyl)-1,8-diazaspiro[4.5] decane-8-carboxylate] | > 75% | > 75% | > 75% | < 100 nM |  |  | ### (% inhibition is greater than or equal to 75%) |
| O=C(OC(C(F)(F)F)C(F)(F)F)N1CCC2(CCCN2C(=O)c2cnn3c2CCCC3)CC1 [Example 148, 1.1,1,3,3,3-Hexafluoropropan-2-yl 1-(4,5,6,7-tetrahydropyrazolo [1,5-a]pyridine-3-carbonyl)-1,8-diazaspiro[4.5] decane-8-carboxylate] | > 75% | > 75% | > 75% | < 100 nM |  |  | ### (% inhibition is greater than or equal to 75%) |
| CN(C(=O)c1nnc2n1CCN(C1CC1)C2)C1(C)CCN(C(=O)OC(C(F)(F)F)C(F)(F)F)CC1 [Example 20, 1,1,1,3,3,3-hexafluoropropan-2-yl 4-(7-cyclopropyl-N-methyl-5,6,7,8-tetrahydro-[1,2,4]triazolo[4,3-a]pyrazine-3-carboxamido)-4-methylpiperidine-1-carboxylate] | > 75% | > 75% | > 75% | < 100 nM |  |  | ### (% inhibition is greater than or equal to 75%) |
| O=C(OC(C(F)(F)F)C(F)(F)F)N1CCC2(CCCN2C(=O)c2cncnc2N2CCCC2)CC1 [Example 5, 1,1,1,3,3,3-Hexafluoropropan-2-yl 1-(4-(pyrrolidin-1-yl)pyrimidine-5-carbonyl)-1,8-diazaspiro[4.5]decane-8-carboxylate] | > 75% |  | > 75% | < 100 nM | < 100 nM |  | ### (% inhibition is greater than or equal to 75%) |
| O=C(OC(C(F)(F)F)C(F)(F)F)N1CCC2(CCCN2C(=O)c2cc3nc(Cl)ccn3n2)CC1 [Example 151, 1,1,1,3,3,3-Hexafluoropropan-2-yl 1-(5-chloropyrazolo[1,5-a]pyrimidine-2-carbonyl)-1,8-diazaspiro[4.5] decane-8-carboxylate] | > 75% | > 75% | > 75% |  |  |  | ## (% inhibition is less than 75% and greater than 25%) |
| Cn1cc(Cl)c(C(=O)N2CCCC23CCN(C(=O)OC(C(F)(F)F)C(F)(F)F)CC3)n1 [Example 120, 1,1,1,3,3,3-Hexafluoropropan-2-yl 1-(4-chloro-1-methyl-1H-pyrazole-3-carbonyl)-1,8-diazaspiro[4.5] decane-8-carboxylate] | > 75% |  | > 75% | < 100 nM |  |  | ### (% inhibition is greater than or equal to 75%) |
| O=C(OC(C(F)(F)F)C(F)(F)F)N1CCC2(CCCN2C(=O)c2cn3c(n2)CN(C2COC2)CC3)CC1 [Example 161, 1.1,1,3,3,3-Hexafluoropropan-2-yl 1-(7-(oxetan-3-yl)-5,6,7,8-tetrahydroimidazo [1,2-a]pyrazine-2-carbonyl)-1,8-diazaspiro[4.5] decane-8-carboxylate] | > 75% | > 75% |  | < 100 nM |  |  | ## (% inhibition is less than 75% and greater than 25%) |
| Cc1cc(C)c2[nH]c(C(=O)N3CCCC34CCN(C(=O)OC(C(F)(F)F)C(F)(F)F)CC4)c(C)c2c1 [Example 63, 1,1,1,3,3,3-Hexafluoropropan-2-yl 1-(3,5,7-trimethyl-1H-indole-2-carbonyl)-1,8-diazaspiro[4.5] decane-8-carboxylate] | > 75% |  |  | < 100 nM |  | < 100 nM | ### (% inhibition is greater than or equal to 75%) |
| CN(C(=O)c1cn2c(n1)CN(C1CC1)CC2)C1(C)CCN(C(=O)OC(C(F)(F)F)C(F)(F)F)CC1 [Example 18, 1,1,1,3,3,3-Hexafluoropropan-2-yl 4-(7-cyclopropyl-N-methyl-5,6,7,8-tetrahydroimidazo[1,2-a]pyrazine-2-carboxamido)-4-methylpiperidine-1-carboxylate] | > 75% | > 75% | > 75% | < 100 nM |  | < 100 nM | ### (% inhibition is greater than or equal to 75%) |
| CC1(NC(=O)c2cn3c(n2)CN(S(C)(=O)=O)CC3)CCN(C(=O)OC(C(F)(F)F)C(F)(F)F)CC1 [Example 27, 1,1,1,3,3,3-hexafluoropropan-2-yl 4-methyl-4-(7-(methylsulfonyl)-5,6,7,8-tetrahydroimidazo[1,2-a]pyrazine-2-carboxamido)piperidine-1-carboxylate] |  | > 75% |  | < 100 nM |  |  | # (% inhibition less or equal to 25%) |

Now from value to molecule, other results behind:

| inhibition at 1 µM (MAGL [1]) | inhibition at 1 µM (MAGL [3]; [4]) | inhibition at 1 µM (MAGL [3]; [5]) | IC50 (MAGL [3]; [6]) | IC50 (MAGL [3]; human PFC (prefrontal cortex), read-out: MAGL Human PFC (IC50)) | IC50 (MAGL [1]) | Structure (SMILES) | MAGL % Inhibition at 5 mg/kg (Mouse) (MAGL [2]) |
| --- | --- | --- | --- | --- | --- | --- | --- |
| > 75% | > 75% | > 75% | < 100 nM |  |  | CC1(CN2CCn3cc(C(=O)N4CCCC45CCN(C(=O)OC(C(F)(F)F)C(F)(F)F)CC5)nc3C2)COC1 [Example 170, 1,1,1,3,3,3-Hexafluoropropan-2-yl 1-(7-((3-methyloxetan-3-yl)methyl)-5,6,7,8-tetrahydroimidazo [1,2-a]pyrazine-2-carbonyl)-1,8-diazaspiro[4.5] decane-8-carboxylate] | # (% inhibition less or equal to 25%) |
| > 75% | > 75% | > 75% | < 100 nM |  |  | O=C(OC(C(F)(F)F)C(F)(F)F)N1CCC2(CCCN2C(=O)C2(c3ncc(F)cn3)CC2)CC1 [Example 180, 1,1,1,3,3,3-Hexafluoropropan-2-yl 1-(1-(5-fluoropyrimidin-2-yl)cyclopropane-1-carbonyl)-1,8-diazaspiro[4.5] decane-8-carboxylate] | ### (% inhibition is greater than or equal to 75%) |
| > 75% | > 75% | > 75% | < 100 nM |  |  | CC(C)(O)CN1CCn2c(nnc2C(=O)NC2(C)CCN(C(=O)OC(C(F)(F)F)C(F)(F)F)CC2)C1 [Example 206, 1,1,1,3,3,3-Hexafluoropropan-2-yl 4-(7-(2-hydroxy-2-methylpropyl)-5,6,7,8-tetrahydro-[1,2,4]triazolo[4,3-a]pyrazine-3-carboxamido)-4-methylpiperidine-1-carboxylate] | ### (% inhibition is greater than or equal to 75%) |
| > 75% |  |  | < 100 nM |  | < 100 nM | O=C(OC(C(F)(F)F)C(F)(F)F)N1CCC2(CCCN2Cc2cnc(N3CCCC3)s2)CC1 [Example 226, 1,1,1,3,3,3-Hexafluoropropan-2-yl 1-((2-(pyrrolidin-1-yl)thiazol-5-yl)methyl)-1,8-diazaspiro[4.5]decane-8-carboxylate] | ### (% inhibition is greater than or equal to 75%) |
| > 75% | > 75% | > 75% | < 100 nM |  |  | CC1(NC(=O)c2nnc3n2CCN(C2CCOC2)C3)CCN(C(=O)OC(C(F)(F)F)C(F)(F)F)CC1 (centres unmarked) [Example 208, 1,1,1,3,3,3-Hexafluoropropan-2-yl 4-methyl-4-(7-(THF-3-yl)-5,6,7,8-tetrahydro-[1,2,4]triazolo [4,3-a]pyrazine-3-carboxamido) piperidine-1-carboxylate] | ### (% inhibition is greater than or equal to 75%) |
| > 75% | > 75% | > 75% | < 100 nM |  |  | CC1(NC(=O)c2cn3c(n2)CN(C2CC2)CC3)CCN(C(=O)OC(C(F)(F)F)C(F)(F)F)CC1 [Example 174, 1,1,1,3,3,3-Hexafluoropropan-2-yl 4-(7-cyclopropyl-5,6,7,8-tetrahydroimidazo[1,2-a]pyrazine-2-carboxamido)-4-methylpiperidine-1-carboxylate] | ### (% inhibition is greater than or equal to 75%) |
| > 75% | > 75% | > 75% | < 100 nM |  |  | CC1(NC(=O)c2nnc3n2CCN(C2CCOCC2)C3)CCN(C(=O)OC(C(F)(F)F)C(F)(F)F)CC1 [Example 209, 1,1,1,3,3,3-Hexafluoropropan-2-yl 4-methyl-4-(7-(tetrahydro-2H-pyran-4-yl)-5,6,7,8-tetrahydro-[1,2,4]triazolo [4,3-a]pyrazine-3-carboxamido) piperidine-1-carboxylate] | ### (% inhibition is greater than or equal to 75%) |
|  | > 75% | > 75% | < 100 nM |  |  | CC(C)N1CCn2cc(C(=O)NC3(C)CCN(C(=O)OC(C(F)(F)F)C(F)(F)F)CC3)nc2C1 [Example 182, 1,1,1,3,3,3-Hexafluoropropan-2-yl 4-(7-isopropyl-5,6,7,8-tetrahydroimidazo[1,2-a]pyrazine-2-carboxamido)-4-methylpiperidine-1-carboxylate] | ### (% inhibition is greater than or equal to 75%) |
